Source: patent US20160145247A1, “Aminomethyl-Biaryl Derivatives Complement Factor D inhibitors and uses thereof” (NOVARTIS AG, priority 2013, published 2016)

target: T1, factor D (Homo sapiens, UniProt P00746); assay: factor D inhibition assay of Biological Example 2; type: biochemical
T1 construct: made in house; host or cells: E. coli
T1 sequence (P00746 26-253): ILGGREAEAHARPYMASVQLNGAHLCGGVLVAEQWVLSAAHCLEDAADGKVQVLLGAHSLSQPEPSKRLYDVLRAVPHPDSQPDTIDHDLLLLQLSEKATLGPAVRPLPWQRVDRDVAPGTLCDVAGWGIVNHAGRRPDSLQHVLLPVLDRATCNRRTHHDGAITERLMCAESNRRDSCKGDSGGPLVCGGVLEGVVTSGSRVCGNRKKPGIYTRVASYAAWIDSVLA

| Structure (SMILES) | IC50 [nM] |
| --- | --- |
| C[C@@H](N)c1cccc(-c2cc(COc3ccccc3CC(=O)O)cc(CN3CCCC3)c2)c1F [Example 216-AJ] | 460 |
| NCc1cc(-c2cccc(COc3ccccc3CC(=O)O)c2)ccn1 [Example 138-G] | 12 |
| COC(C)c1cc(COc2ccccc2CC(=O)O)cc(-c2cccc([C@H](N)CO)c2)c1 (stereo partly drawn) [Example 120-E] | 17 |
| C[C@@H](N)c1cccc(-c2cc(CNc3ccn(C)n3)cc(COc3ccccc3CC(=O)O)c2)c1F [Example 216-AF] | 16 |
| N[C@H](CO)c1cccc(-c2cc(C(=O)Nc3ccccc3CC(=O)O)cc(-c3cccc([C@H](N)CO)c3)c2)c1 [Example 82-B, 2-(2-(3,3″-bis((S)-1-amino-2-hydroxyethyl)-[1,1′:3′,1″-terphenyl]-5′-ylcarboxamido)phenyl)acetic acid] | 19 |
| CC(C)[C@@H](N)c1cccc(-c2cccc(COc3ccccc3CC(=O)O)c2)c1 [Example 190-F] | 3150 |
| CCc1ccc(NC(=O)c2cc(NC[C@@H]3CCCO3)cc(-c3cc(F)cc(CN)c3)c2)c(CC(=O)O)c1 [Example 25-D, (S)-2-(2-(3′-(Aminomethyl)-5′-fluoro-5-(((tetrahydrofuran-2-yl)methyl)amino)-[1,1′-biphenyl]-3-ylcarboxamido)-5-ethylphenyl)acetic acid] | 11 |
| N[C@H](CO)c1cccc(-c2cc(COc3ccccc3CC(=O)O)cc(C(=O)N[C@H]3CCOc4ccccc43)c2)c1 [Example 287-G, 2-(2-((3′-((S)-1-amino-2-hydroxyethyl)-5-((S)-chroman-4-ylcarbamoyl)-[1,1′-biphenyl]-3-yl)methoxy)phenyl)acetic acid] | 37 |
| C[C@@H](N)c1cccc(-c2cc(COc3ccccc3CC(=O)O)cc(OCC3(C)COC3)c2)c1F [Example 262, (R)-2-(2-((3′-(1-aminoethyl)-2′-fluoro-5-((3-methyloxetan-3-yl)methoxy)-[1,1′-biphenyl]-3-yl)methoxy)phenyl)acetic acid] | 41 |
| C[C@@H](N)c1cccc(-c2cc(COc3ccccc3CC(=O)O)cc(OCc3ncn(C)n3)c2)c1F [Example 214-K] | 15 |
| NCc1cc(F)cc(-c2cccc(C(=O)Nc3c(Cl)cccc3CC(=O)O)n2)c1 [Example 21-N] | 138 |
| NCc1cccc(-c2cccc(COc3ccc(Br)cc3CC(=O)O)c2)c1 [Example 168, 2-(2-((3′-(Aminomethyl)-[1,1′-biphenyl]-3-yl)methoxy)-5-bromophenyl)acetic acid] | 27 |
| NCc1cc(F)cc(-c2cccc(C(=O)Nc3cc(Br)ccc3CC(=O)O)c2)c1 [Example 21-A] | 414 |
| NCc1cccc(-c2cc(O)cc(C(=O)Nc3ccccc3CC(=O)O)n2)c1 [Example 55, 2-(2-(6-(3-(Aminomethyl)phenyl)-4-hydroxypicolinamido)phenyl)acetic acid] | 13 |
| C[C@@H](N)c1cccc(-c2cc(CNCC(F)(F)F)cc(COc3ccccc3CC(=O)O)c2)c1F [Example 285-B] | 58 |
| C[C@@H](N)c1cccc(-c2cc(COc3ccccc3CC(=O)O)cc(OC[C@H]3CCCO3)c2)c1F [Example 232, 2-(2-((3′-((R)-1-aminoethyl)-2′-fluoro-5-(((R)-tetrahydrofuran-2-yl)methoxy)-[1,1′-biphenyl]-3-yl)methoxy)phenyl)acetic acid] | 2 |
| C[C@@H](N)c1cccc(-c2cc(COc3ccccc3CC(=O)O)cc(CN3CCCOCC3)c2)c1F [Example 216-AI] | 24 |
| C[C@@H](N)c1cccc(-c2cc(COc3ccccc3CC(=O)O)cc(NCC3CCCC3)c2)c1F [Example 216-D] | 2 |
| Cc1cc(-c2cccc([C@H](N)CO)c2)cc(COc2ccccc2CC(=O)O)n1 [Example 185, (S)-2-(2-((4-(3-(1-Amino-2-hydroxyethyl)phenyl)-6-methylpyridin-2-yl)methoxy)phenyl)acetic acid] | 24 |
| Cn1ccc(COc2cc(C(=O)Nc3ccccc3CC(=O)O)cc(-c3cccc(CN)c3)c2)n1 [Example 66, 2-(2-(3′-(Aminomethyl)-5-((1-methyl-1H-pyrazol-3-yl)methoxy)-[1,1′-biphenyl]-3-ylcarboxamido)phenyl)acetic acid] | 33 |
| N[C@H](CO)c1cccc(-c2ccc(C(F)(F)F)c(COc3ccccc3CC(=O)O)c2)c1 [Example 167, (S)-2-(2-((3′-(1-Amino-2-hydroxyethyl)-4-(trifluoromethyl)-[1,1′-biphenyl]-3-yl)methoxy)phenyl)acetic acid] | 30 |
| CCOCc1cc(COc2ccccc2CC(=O)O)cc(-c2cccc([C@@H](C)N)c2F)c1 [Example 120-Q] | 17 |
| COCCNc1cc(C(=O)Nc2ccccc2CC(=O)O)cc(-c2cc(F)cc(CN)c2)c1 [Example 14-E] | 10 |

Results, then the molecule that gave them:

| IC50 [nM] | Structure (SMILES) |
| --- | --- |
| 380 | COC(C)c1cc(COc2ccccc2CC(=O)O)cc(-c2cccc([C@H](N)CF)c2)c1 (mixture of isomers) [Example 121-C, 2-(2-((3′-((S)-1-Amino-2-fluoroethyl)-5-(1-methoxyethyl)-[1,1′-biphenyl]-3-yl)methoxy)phenyl)acetic acid] |
| 9 | C[C@@H](N)c1cccc(-c2cc(COc3ccccc3CC(=O)O)cc(OCc3ccncn3)c2)c1F [Example 214-J] |
| 13 | COCCc1cc(COc2ccccc2CC(=O)O)cc(-c2cccc([C@@H](C)N)c2)c1 [Example 120-W] |
| 32 | NCc1cccc(-c2cc(OCc3ncccn3)cc(C(=O)Nc3ccccc3CC(=O)O)c2)c1 [Example 61-B, 2-(2-(3′-(Aminomethyl)-5-(pyrimidin-2-ylmethoxy)-[1,1′-biphenyl]-3-ylcarboxamido)phenyl)acetic acid] |
| 3 | NCc1cccc(-c2cc(COc3ccccc3CC(=O)O)cc(-c3cc4ccccc4[nH]3)c2)c1 [Example 209-A] |
| 6 | C[C@@H](N)c1cccc(-c2cc(C#Cc3ccn(C)n3)cc(COc3ccccc3CC(=O)O)c2)c1F [Example 218-G, (R)-2-(2-((3′-(1-Aminoethyl)-2′-fluoro-5-((1-methyl-1H-pyrazol-3-yl)ethynyl)-[1,1′-biphenyl]-3-yl)methoxy)phenyl)acetic acid] |
| 490 | NC(CCF)c1cccc(-c2cccc(COc3ccccc3CC(=O)O)c2)c1 (stereo not drawn) [Example 278-B, 2-(2-((3′-(1-amino-3-fluoropropyl)-[1,1′-biphenyl]-3-yl)methoxy)phenyl)acetic acid] |
| 5 | NCc1cccc(-c2cc(COc3ccccc3CC(=O)O)cc(C(N)C(F)(F)F)c2)c1 (racemic) [Example 207-B, (±)-2-(2-((5-(1-Amino-2,2,2-trifluoroethyl)-3′-(aminomethyl)-[1,1′-biphenyl]-3-yl)methoxy)phenyl)acetic acid] |
| 396 | CCc1ccc(NC(=O)c2cccc(-c3cc(F)cc(CN)c3)c2)c(CC(=O)O)c1 [Example 23-C, 2-(2-(3′-(Aminomethyl)-5′-fluoro-[1,1′-biphenyl]-3-ylcarboxamido)-5-ethylphenyl)acetic acid] |
| 9 | NCc1cccc(-c2cc(N3CCOCC3)cc(C(=O)Nc3ccccc3CC(=O)O)n2)c1 [Example 44, 2-(2-(6-(3-(Aminomethyl)phenyl)-4-morpholinopicolinamido)phenyl)acetic acid] |
| 17 | C[C@@H](N)c1cccc(-c2cc(NC[C@H]3CCCO3)c3c(c2)C(Oc2ccccc2CC(=O)O)CCO3)c1F (stereo partly drawn) [Example 216-W] |
| 989 | NCc1cc(F)cc(-c2cccc(C(=O)Nc3c(F)cccc3CC(=O)O)c2)c1 [Example 21-D] |
| < 1 | C[C@@H](N)c1cccc(-c2cc(COc3ccccc3CC(=O)O)cc(CC3CCOCC3)c2)c1F [Example 246-C, (R)-2-(2-((3′-(1-aminoethyl)-2′-fluoro-5-((tetrahydro-2H-pyran-4-yl)methyl)-[1,1′-biphenyl]-3-yl)methoxy)phenyl)acetic acid] |
| 34 | C[C@@H](N)c1cccc(-c2cc(COc3ccccc3CC(=O)O)cc(OC[C@H]3CCCO3)c2)n1 [Example 235, 2-(2-((3-(6-((R)-1-aminoethyl)pyridin-2-yl)-5-(((R)-tetrahydrofuran-2-yl)methoxy)benzyl)oxy)phenyl)acetic acid] |
| 2870 | O=C(O)Cc1ccccc1OCc1cccc(-c2cccc(C3CCCN3)c2)c1 (stereo not drawn) [Example 138-J] |
| 835 | Cc1ccc(NC(=O)c2cccc(-c3cc(F)cc(CN)c3)c2)c(CC(=O)O)c1 [Example 22-C, 2-(2-(3′-(aminomethyl)-5′-fluoro-[1,1′-biphenyl]-3-ylcarboxamido)-5-methylphenyl)acetic acid] |
| 10 | CC(=O)NCc1ccc(CC(=O)O)c(OCc2cccc(-c3cccc(CN)c3)c2)c1 [Example 294-D] |
| 25 | COCc1cc(COc2ccccc2CC(=O)O)cc(-c2cccc([C@H](C)N)c2F)c1 [Example 120-I] |
| 3430 | CNCc1cccc(-c2cccc(COc3ccccc3CC(=O)O)c2)c1 [Example 288, 2-(2-((3′-((methylamino)methyl)-[1,1′-biphenyl]-3-yl)methoxy)phenyl)acetic acid] |
| 62 | COc1ccc(COc2ccccc2CC(=O)O)cc1-c1cccc([C@H](N)CO)c1 [Example 127-B, (S)-2-(2-((3′-(1-Amino-2-hydroxyethyl)-6-methoxy-[1,1′-biphenyl]-3-yl)methoxy)phenyl)acetic acid] |
| 12800 | NCc1cccc(-c2cncc(C(=O)Nc3ccccc3CC(=O)O)c2)c1 [Example 40, 2-(2-(5-(3-(Aminomethyl)phenyl)nicotinamido)phenyl)acetic acid] |
| 1790 | NCc1ccnc(-c2cccc(COc3ccccc3CC(=O)O)c2)n1 [Example 158-C, 2-(2-((3-(4-(Aminomethyl)pyrimidin-2-yl)benzyl)oxy)phenyl)acetic acid] |
| 239 | N[C@H](CC1CC1)c1cccc(-c2cccc(COc3ccccc3CC(=O)O)c2)c1 [Example 196-I] |
| 346 | C[C@@H](N)c1cc(-c2cccc(COc3ccccc3CC(=O)O)c2)ccn1 [Example 142-D] |
| 3 | NCc1cccc(-c2cc(N)c(F)c(COc3ccccc3CC(=O)O)c2)c1 [154-C a), 2-(2-((5-Amino-3′-(aminomethyl)-4-fluoro-[1,1′-biphenyl]-3-yl)methoxy)phenyl)acetic acid] |
